{"source": "patent US6495585B2", "about": "“Method for treating hyperproliferative tissue in a mammal” (Health Research, Inc., priority 2001, dated 2002)", "key": {"tumor blood flow": {"test_system": "tumor blood flow", "conditions": "in vivo; cited from earlier work"}, "[1]": {"test_system": "natural killer cell activity", "conditions": "spleen and other tissues; cited from earlier work"}, "tumor cell lines": {"test_system": "tumor cell lines", "conditions": "cited from earlier work"}, "Colon 38 tumors": {"test_system": "Colon 38 tumors", "conditions": "compared with FAA; cited from earlier work"}, "RIF-1 tumors": {"test_system": "RIF-1 tumors", "protocol": "The drawings illustrate the responses of RIF-1 tumors to either PDT (FIG. 2a) or DMXAA (FIG. 2b). Dose response data are shown in the form of Kaplan-Meier ‘survival’ plots, where the percent of RIF-1 tumors with volumes less than […] are plotted against time from treatment. Tumor volumes at the time of treatment were 50-70 mg (approximately […] of the mouse body mass).\nIn pilot studies of PDT plus adjuvant DMXAA only low doses of each modality were chosen. […] 23 hours, 20 mg DMXAA/kg. 2 hours, 135 J/cm^263-nm laser light. Control tumors (no drug, no light) are shown as solid black squares; DMXAA are shown as open circles; PDT alone as gray circles.\nThe symbols in the graph are the same as for FIG. 3."}, "implanted murine tumors": {"test_system": "implanted murine tumors", "conditions": "compared with FAA; cited from earlier work"}, "TNF-α": {"test_system": "TNF-α", "conditions": "cited from earlier work"}, "[2]": {"test_system": "cultured human and murine cells", "conditions": "cited from earlier work"}}, "data": [{"smiles": "O=C(O)Cc1cccc2c(=O)cc(-c3ccccc3)oc12", "note": "[FAA, Flavone-8-acetic acid]", "values": [{"measurement": "effect on tumor blood flow", "setting": "tumor blood flow", "value": "causes reduction in tumor blood flow"}, {"measurement": "natural killer cell activity", "setting": "[1]", "value": "induces natural killer cell activity"}, {"measurement": "in vitro activity against tumor cell lines", "setting": "tumor cell lines", "value": "shows in vitro activity against a number of tumor cell lines"}]}, {"smiles": "O=C(O)Cc1cccc2c(=O)c3ccccc3oc12", "note": "[XAA, Xanthenone-4-acetic acid]", "values": [{"measurement": "efficiency in eliminating Colon 38 tumors", "setting": "Colon 38 tumors", "value": "more efficient than FAA"}]}, {"smiles": "Cc1ccc2c(=O)c3cccc(CC(=O)O)c3oc2c1C", "note": "[DMXAA, 5,6-Dimethylxanthenone-4-acetic acid]", "values": [{"measurement": "tumor control (percent of RIF-1 tumors with volumes less than 400 mm vs time from treatment)", "setting": "RIF-1 tumors; administered alone, Kaplan-Meier plots, FIG. 2a/2b", "value": "control tumors in a dose-dependent manner"}, {"measurement": "toxicity of most effective doses", "setting": "RIF-1 tumors; mouse, in vivo", "value": "most effective doses are at or near the treatment toxic limits"}, {"measurement": "dose potency against implanted murine tumors", "setting": "implanted murine tumors", "value": "considerably greater dose potencies than FAA"}, {"measurement": "cytokine induction", "setting": "TNF-α", "value": "induce TNF-α along with IFN-γ"}, {"measurement": "in vitro activity", "setting": "[2]", "value": "active in vitro"}]}]}
